Experimental findings from PubChem BioAssay (NCI) are described below.

Common to all, as to assay: NCI tumour cell line growth inhibition, 48 h
Test [1] relates to HOP-62 NSCLC.
Test [2] deals with LOX IMVI melanoma.
For test [3], the system named is MALME-3M melanoma.
The subject of test [4] is CAKI-1 renal.
Test [5] concerns U251 CNS.
In test [6] the test system is MDA-MB-435.
Test [7] relates to SF-295 CNS.
Test [8] concerns OVCAR-4 ovarian.
Test [9] relates to NCI-H460 lung.
Test [10] has as its system HCT-15 colon.

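Step 1: Grow cells in 96-well plates. Step 2: Expose to compound for 48 hours at 5 concentrations. Step 3: Interpolate endpoints linearly; if unreached, use highest concentration. Abbreviation: GI50, concentration required for 50% inhibition of growth. TGI marks complete inhibition of growth.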

For the compound `CC(C)C1CC(CO)(CNc2cc(Cl)nc(N)n2)C1` (stereo not given), the TGI in test [1], in test [2], in test [3], in test [4], in [5] and in [6] was above 100 µM each time. The TGI in test [7], in test [8], in [9] and in test [10] was above 100 µM each time.

With `C=C1CC(Cn2cc(Br)c(=O)[nH]c2=O)(c2ccc(-c3ccccc3)cc2)OC1=O` (stereo not given), the TGI in [1] was determined as 19.3 µM; in test [2], 2.61 µM; in [3], 3.06 µM; in test [4], 4.41 µM; in test [5], 18.4 µM; in [6], 2.36 µM. For the same compound, the TGI was found to be 18.5 µM in [7], 4.64 µM in test [8], 19.7 µM in [9] and 3.8 µM in test [10].

As for `CC12CC(c3ccccc3O1)C(C(=O)Nc1cccc(F)c1)C(=O)N2` (stereo not given), the TGI in test [1], in test [2], in [3], in test [4], in test [5] and in test [6] was above 100 µM throughout. The TGI in [7], in test [8], in test [9] and in test [10] was above 100 µM in each case.

For `COC1=CC(=O)C2=C(C1=O)[C@H]1CC[C@]3(C)[C@@H](OC(C)=O)CC[C@H]3[C@@H]1CC2`, the TGI was above 100 µM in test [1]; 36.7 µM in [2]; 59 µM in [3]; above 100 µM in test [4]; above 100 µM in test [5]; 38.2 µM in [6]. Also, the TGI in [7] is above 100 µM; in test [8] it was 30.6 µM; in [9], above 100 µM; in test [10], above 100 µM.

For `O=c1oc2ccc(Cl)cc2cc1-c1cn2ccsc2n1`, the TGI in test [1], in [2], in test [3], in test [4], in test [5] and in [6] was above 100 µM each time. For the same compound, the TGI in test [7], in test [8], in test [9] and in [10] was above 100 µM in each case.

Turning to `COc1ccc(C=Nc2ccc(-c3nc4ccccc4[nH]3)cc2)cc1OC`, the TGI in [1], in [2], in [3], in [4], in [5] and in test [6] was above 100 µM each time. In addition, the TGI in [7], in [8], in test [9] and in test [10] was above 100 µM in each case.

Consider `CC/C(Cl)=N\OC(=O)Nc1ccc(F)cc1F`, for which the TGI in [1] was 46.1 µM; in test [2] it was 6.57 µM; in test [3], 12 µM; in [4], 3.09 µM; in test [5] it was 55.6 µM; in [6] it was 34.2 µM. For the same compound, the TGI in [7] is above 60 µM; in test [8] it was 34.8 µM; in [9] it was 85.8 µM; in test [10] it was 5.24 µM.

`COc1cc(-n2cc(-c3cc(O)c(C/C=C(\C)CCC=C(C)C)c(O)c3)nn2)cc2c1O[C@]1(C)CC[C@@H](O)C(C)(C)[C@H]1C2`: the GI50 in test [1] is 0.564 µM; in test [2], 0.186 µM; in [3] it was 1.38 µM; in test [4] it was 0.43 µM; in test [5] it was 0.0959 µM; in test [6] it was 1.22 µM. Also, the GI50 is 0.028 µM in [7], 3.13 µM in test [8], 1.13 µM in test [9] and 1.08 µM in [10]. Moreover, the TGI in test [1] is 12.7 µM; in test [2], 1.09 µM; in test [3], 8.4 µM; in test [4], above 100 µM; in test [5], 10.9 µM; in test [6], 27.6 µM. The TGI was 0.122 µM in [7], 41.6 µM in test [8], 14.9 µM in [9] and 9.7 µM in [10].

For `Cc1cn([C@H]2[C@@H](CO)C[C@H]2O)c(=O)[nH]c1=O`, the TGI in [1], in [2], in test [3], in [4], in test [5] and in [6] was above 100 µM in each case. Further, the TGI in test [7], in test [8], in test [9] and in [10] was above 100 µM in each case.

As to `COc1ccc(C(=O)c2ccc(-n3cc(/C=C/[N+](=O)[O-])c4ccccc43)cc2)cc1`, the TGI was 35.4 µM in test [1]; 19.2 µM in [2]; 46.8 µM in [3]; above 52.3 µM in [4]; 24.9 µM in [5]; 49.3 µM in test [6]. Moreover, the TGI is above 100 µM in [7], above 100 µM in test [8], above 66.1 µM in test [9] and 41.1 µM in [10].

Regarding `Cc1ccc(S(=O)(=O)N/N=C2\C3CC4CC(C3)C2C4)cc1` (stereo not given), the TGI in [1], in test [2], in [3], in test [4], in test [5] and in [6] was above 100 µM each time. Besides, the TGI in [7], in test [8], in test [9] and in test [10] was above 100 µM throughout.

In the case of `C/C(=N\Nc1ccccc1)C(CN(C)C)C(c1ccccc1)c1c(O)c2ccccc2oc1=O` (stereo not given), the TGI in [1], in test [2], in test [3], in [4], in [5] and in test [6] was above 100 µM throughout. Further, the TGI in test [7], in test [8], in test [9] and in [10] was above 100 µM throughout.

Regarding `Cc1ccc(/C=C2\CN(C)CC3C2=NC(=S)NC3c2ccc(C)cc2)cc1` (stereo not given), the TGI in [1] was above 100 µM; in test [2], above 100 µM; in test [3] it was above 100 µM; in test [4], above 100 µM; in test [5] it was above 87.4 µM; in test [6], 45.1 µM. The TGI in test [7], in [8], in test [9] and in test [10] was above 100 µM each time.

As to `Cc1cc(S(=O)(=O)O)c(NC(=O)c2oc3cc(O)ccc3c(=O)c2C)cc1Cl`, the TGI in [1], in [2], in test [3], in test [4], in test [5] and in test [6] was above 100 µM throughout. The TGI in test [7], in test [8], in test [9] and in [10] was above 100 µM throughout.

Take `CCN(CC)CCN(C)CCc1ccc(Br)cc1`: the TGI in test [1], in [2], in [3], in [4], in [5] and in [6] was above 100 µM in each case. The TGI in [7], in [8], in test [9] and in [10] was above 100 µM each time.

For the compound `CCOC(=O)CCCn1cc(C(=O)OC)nn1`, the TGI in test [1], in test [2], in [3], in [4], in [5] and in [6] was above 100 µM in each case. Also, the TGI in test [7], in [8], in [9] and in test [10] was above 100 µM in each case.

In the case of `COC(=O)C(NC(=O)CSc1nnc(COc2ccc(Cl)cc2)n1-c1ccccc1)C(C)C` (stereo not given), the TGI in test [1] was 35.2 µM; in test [2] it was 88.1 µM; in [3], 31.9 µM; in test [4], 25.1 µM; in test [5], above 100 µM; in test [6], 43 µM. Besides, the TGI is 42.2 µM in test [7], 74.1 µM in [8], 99.3 µM in test [9] and above 100 µM in test [10].

Take `O=P(O)(O)CN1CCNCCN(CP(=O)(O)O)CCNCC1`: the TGI in test [1], in test [2], in [3], in test [4], in test [5] and in [6] was above 100 µM each time. The TGI was above 100 µM in test [7], above 100 µM in test [8], 13.1 µM in [9] and above 100 µM in test [10].

As for `CC(C)=CCC[C@@H](C)c1c2[nH]c3ccccc3sc-2c(C)c(=O)c1=O`, the TGI in test [1] was 24.9 µM; in test [2] it was above 29 µM; in test [3] it was above 29.1 µM; in test [4], 35.2 µM; in test [5], above 75 µM; in test [6], above 75 µM. Moreover, the TGI in test [7] is 40.6 µM; in test [8], above 75 µM; in [9], above 27 µM; in [10], above 75 µM.

In the case of `COC(=O)c1ccc(/C=C2\CCc3ccccc3C2=O)cc1`, the TGI in [1], in [2], in test [3], in [4], in test [5] and in [6] was above 100 µM throughout. The TGI in [7], in [8], in test [9] and in test [10] was above 100 µM each time.

Regarding `CCOC(=O)c1nc2ccccc2nc1NCc1ccc(Cl)cc1Cl`, the TGI in [1], in test [2], in [3], in test [4], in [5] and in test [6] was above 100 µM each time. Also, the TGI in [7], in test [8], in test [9] and in test [10] was above 100 µM in each case.

Turning to `CC(=O)c1ccc(NC(=O)CSc2nc(C)nc3c2sc(=S)n3-c2ccccc2)cc1`, the TGI in [1], in test [2], in [3], in [4], in test [5] and in [6] was above 3.16 µM throughout. Besides, the TGI in test [7], in [8], in test [9] and in test [10] was above 3.16 µM in each case.

For the compound `CCCNC(=O)CCC(C)[C@H]1CCC2C3C(C[C@H](OC(C)=O)[C@@]21C)[C@@]1(C)CCC2(C[C@H]1C[C@H]3OC(C)=O)OOC1(CCCCC1)OO2` (stereo not given in full), the TGI in [1] was determined as 1.34 µM; in test [2], 3.52 µM; in test [3], 6.04 µM; in [4] it was 1.54 µM; in [5], 3.84 µM; in [6], 9.92 µM. Also, the TGI in test [7] was 39.7 µM; in test [8] it was 26.6 µM; in test [9] it was 6.83 µM; in test [10] it was above 100 µM.

`Cc1ccc2c(c1)CC1(C2=O)[C@H](c2ccccc2)C2C(=O)c3ccc(C)cc3C2[C@H]1c1ccccc1` (stereo not given in full): the TGI in [1], in [2], in test [3], in test [4], in test [5] and in [6] was above 100 µM throughout. Also, the TGI in test [7], in test [8], in [9] and in test [10] was above 100 µM in each case.

For the compound `Nc1ncc(/C=N/O)c(NCC2(CO)CC(CCc3ccccc3)C2)n1` (stereo not given), the TGI is 24.8 µM in [1]; 22.3 µM in test [2]; 25.3 µM in [3]; above 100 µM in [4]; 26.4 µM in test [5]; 23.8 µM in test [6]. The TGI was found to be 22.7 µM in [7], 48.5 µM in test [8], 22.1 µM in test [9] and 29.9 µM in [10].

`O=C1C=C(N2CCN(c3ccccn3)CC2)C(=O)c2c(O)ccc(O)c21`: the TGI in test [1] is 47.7 µM; in [2], above 45 µM; in [3], 1.63 µM; in test [4] it was above 46.4 µM; in test [5], 23 µM; in test [6], 1.75 µM. The TGI amounted to 51.5 µM in test [7], 28.2 µM in test [8], 38.1 µM in test [9] and 39.1 µM in [10].
